Holding throughout (assay type): biochemical
Experiment [1] deals with T1, PDE8A (Homo sapiens, UniProt Q9Y233).
T1 construct: made in house; host or cells: yeast strain BJ2-54 lacking endogenous PDE activity; plasmid W48-2ADH2 (ATCC 98552); crude yeast extract
Briefly: Inhibition of recombinant PDE8A activity (32P-phosphate release from 32P-cAMP). The settings on record: for Fold Difference: IC50 for PDE8 versus IC50 for target family; for IC50: read-out: IC50 for PDE8. As to the method:
(§1) Frozen cell pellets (0.06 ml) were thawed and suspended in 0.2 ml lysis buffer containing 100 mM MOPS, pH 8.0, 200 mM NaCl, 2 μM […], 2 mM dithiothreitol, and 10 μg/ml each protease inhibitors pepstatin, leupeptin, and aprotinin. Approximately 0.2 ml of 0.5 mm glass beads were added to the cells which were then lysed with four 30-second cycles of vortexing. The lysate was aspirated and the beads were washed twice with 0.3 ml lysis buffer. The lysate was combined with the washes to generate the yeast extract. In some experiments the lysate was fractionated by centrifugation at 105,000×g for thirty minutes.
PDE activity was assayed by detection of ^32P-phosphate released from ^32P-cAMP or ^32P-cGMP as described previously [Loughney et al., J. Biol. Chem. 271:796-806 (1996)]. The yeast extract was diluted in 0.5×lysis buffer also containing 0.5 mg/ml bovine serum albumin. Twenty μl of the yeast extract, or diluted yeast extract, was assayed in a 100 μl reaction volume which included an additional 50 mM Tris-HCl (pH 8.0), 5 mM MgCl2 1 μM Zn SO2, and 0.1 mg/ml bovine serum albumin. Protein concentration was assayed by the method of Bradford.

In a further experiment the test system is PDE3. Briefly: IC50 of isozyme-selective inhibitor for its target family PDE3. The settings on record: Target PDE Family PDE3.
Another experiment addresses PDE5 (Homo sapiens, UniProt O76074). Put plainly: IC50 of isozyme-selective inhibitor for its target family PDE5. As to conditions: Target PDE Family PDE5.
A further experiment addresses PDE2 (Homo sapiens, UniProt O00408). Briefly: IC50 of isozyme-selective inhibitor for its target family PDE2. The settings on record: Target PDE Family PDE2.
Experiment [2] relates to known human PDEs (Non-selective). Put plainly: IC50 of non-selective inhibitor for known PDEs. The settings on record: read-out: IC50 for Target Family.
The target in experiment [3] is T1, PDE8A. Put plainly: Kinetic analysis of PDE8A hydrolysis of cyclic nucleotide substrates in yeast extract. The settings on record: estimated, substrate of PDE8A, yeast lysate. As to the method: as §1
The yeast extract was diluted in 0.5×lysis buffer also containing 0.5 mg/ml bovine serum albumin. Twenty μl of the yeast extract, or diluted yeast extract, was assayed in a 100 μl reaction volume which included an additional 50 mM Tris-HCl (pH 8.0), 5 mM MgCl2 1 μM Zn SO2, and 0.1 mg/ml bovine serum albumin. Protein concentration was assayed by the method of Bradford.

Where [4] appears, read: cAMP concentration of 60 nM, low Km form only, yeast extract.

Like-named read-outs stand apart in the source and are kept apart here.

T1 sequence (Q9Y233 290-1055 limits assumed): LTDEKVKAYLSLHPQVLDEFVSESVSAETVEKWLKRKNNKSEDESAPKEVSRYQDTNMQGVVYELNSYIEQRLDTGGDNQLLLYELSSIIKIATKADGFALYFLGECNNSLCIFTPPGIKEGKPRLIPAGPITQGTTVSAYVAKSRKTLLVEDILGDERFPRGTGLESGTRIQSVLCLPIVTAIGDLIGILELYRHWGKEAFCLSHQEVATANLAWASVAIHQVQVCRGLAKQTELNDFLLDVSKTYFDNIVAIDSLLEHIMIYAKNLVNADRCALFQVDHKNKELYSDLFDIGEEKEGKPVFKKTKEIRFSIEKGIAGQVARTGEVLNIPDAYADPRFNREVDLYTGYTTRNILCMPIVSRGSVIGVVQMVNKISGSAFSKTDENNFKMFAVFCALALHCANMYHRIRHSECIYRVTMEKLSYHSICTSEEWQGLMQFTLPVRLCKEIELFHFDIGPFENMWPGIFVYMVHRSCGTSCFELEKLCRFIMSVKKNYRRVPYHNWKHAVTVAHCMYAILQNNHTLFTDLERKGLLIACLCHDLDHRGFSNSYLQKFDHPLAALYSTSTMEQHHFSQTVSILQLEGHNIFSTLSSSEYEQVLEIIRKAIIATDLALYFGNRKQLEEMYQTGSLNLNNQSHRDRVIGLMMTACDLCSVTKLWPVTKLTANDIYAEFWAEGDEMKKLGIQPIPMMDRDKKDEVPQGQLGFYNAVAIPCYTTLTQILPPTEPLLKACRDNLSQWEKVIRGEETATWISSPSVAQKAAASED
Chain of PDE2 (O00408 whole entry): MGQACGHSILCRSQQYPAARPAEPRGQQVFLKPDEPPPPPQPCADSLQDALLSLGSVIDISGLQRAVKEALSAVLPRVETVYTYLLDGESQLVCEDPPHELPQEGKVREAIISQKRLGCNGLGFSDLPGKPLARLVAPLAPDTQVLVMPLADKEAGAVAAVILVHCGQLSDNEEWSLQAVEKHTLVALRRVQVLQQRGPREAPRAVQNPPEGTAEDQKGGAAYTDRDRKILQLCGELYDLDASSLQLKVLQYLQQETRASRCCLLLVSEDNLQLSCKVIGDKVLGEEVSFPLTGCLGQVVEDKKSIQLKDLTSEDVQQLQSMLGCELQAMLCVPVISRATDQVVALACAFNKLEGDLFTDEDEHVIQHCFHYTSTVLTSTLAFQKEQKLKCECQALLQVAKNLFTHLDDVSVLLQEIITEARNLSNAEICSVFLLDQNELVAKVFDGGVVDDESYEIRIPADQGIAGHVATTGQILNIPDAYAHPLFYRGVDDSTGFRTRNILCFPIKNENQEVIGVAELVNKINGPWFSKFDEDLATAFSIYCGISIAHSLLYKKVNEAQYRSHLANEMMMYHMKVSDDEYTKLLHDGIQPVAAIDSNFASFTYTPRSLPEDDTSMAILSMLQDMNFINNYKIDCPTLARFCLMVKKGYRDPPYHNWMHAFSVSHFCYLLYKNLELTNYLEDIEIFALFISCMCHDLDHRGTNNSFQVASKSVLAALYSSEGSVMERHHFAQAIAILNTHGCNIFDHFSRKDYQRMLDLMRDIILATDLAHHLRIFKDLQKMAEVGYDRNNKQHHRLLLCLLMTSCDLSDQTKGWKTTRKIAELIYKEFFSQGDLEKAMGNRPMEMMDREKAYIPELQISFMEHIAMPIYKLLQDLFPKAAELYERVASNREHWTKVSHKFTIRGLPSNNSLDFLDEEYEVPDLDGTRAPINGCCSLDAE

Turning to `CN(C(=O)CCCOc1ccc2[nH]c(=O)ccc2c1)C1CCCCC1` [Cilostamide], at PDE8A [1], the “Fold Difference” value came out at 750 and the IC50 was 12000 nM. For the same compound, the IC50 with PDE3 turned out to be 20 nM.

Consider `CCCOc1ccc(NS(C)(=O)=O)cc1-c1nc2c(c(C)nn2C)c(=O)[nH]1` [DMPPO], for which the results for the IC50 at PDE5 and at PDE8A [1] (setting [4]) were 16 nM and 1100 nM, respectively. Also, the “Fold Difference” value on PDE8A [1] stood at 66.

With `CCCCCCC(C(C)O)n1cnc2c(N)ncnc21` (stereo not drawn) [EHNA, erythro-9-(2-hydroxy-3-nonyl)adenine], at PDE8A [1], the “Fold Difference” value is 31 and the 50% inhibitory concentration (IC50) stood at 65000 nM. For the same compound, the IC50 at PDE2 stood at 2000 nM.

Take `CC(C)Cn1c(=O)n(C)c(=O)c2[nH]cnc21` [IBMX, isomethyl butyl xanthine]: on PDE8A [1], the “Fold Difference” value is recorded as 0.12-4.6. Also, the IC50 is 4600 nM at PDE8A [1] (setting [4]) and 1000 to 40000 nM in experiment [2].

Turning to `Nc1nc2c(ncn2[C@@H]2O[C@@H]3COP(=O)(O)O[C@H]3[C@H]2O)c(=O)[nH]1` [cGMP], the Km on PDE8A [3] (read-out: Km, high Km form) is 300 µM; on PDE8A [3] (read-out: Km, low Km form), 3 µM.

The values above are taken from patent publication US6566087B1, “Phosphodiesterase 8A” (ICOS Corporation, priority 1997, dated 2003).
